Laboratory results published in patent US20020049157A1, “Use of proteasome inhibitors for treating cancer, inflammation, autoimmune disease, graft rejection and septic shock” (priority 1998, published 2002).

What was measured:
Peripheral blood T cells = experiment: S phase entry of mitogen-stimulated peripheral blood T cells (flow cytometry); assay type: cell-based, human; conditions: PHA; for cell death: evaluated at 40 h, data not shown
Method: C and D. LAC blocks the S phase entry of the mitogen-stimulated peripheral blood T cells Peripheral blood T cells were stimulated with PHA (2 μ/ml) in the absence or presence of LAC (10 μM, added at 0 h, 16 h, 24 h, or 40 h, as indicated in the bottom of the panels). For the flow cytometry analysis of the cell cycle progress, the cells were harvested at 0 h, 1 6 h, 40 h and 64 h as indicated on the top of the panels (FIG. 6C). For ^3H-thymidine uptake, the triplicated cell samples were pulsed at 48 h and harvested at 64 h (FIG. 6D).
T cells from PBMC were at Go when isolated. After 16 h stimulation with PHA, they remained before the S phase (FIG. 6C). At 40 h, about 20% of the cells were in the S and G2/M phases. The peak of ^3H-thymidine uptake according to a 16 h pulse was between 48 h and 64 h (data not shown), although at 64 h, the cells in the S and G2/M phases were still about 20% (FIG. 6C). The lack of an increase in percentage of cells in the S and G2/M phases at 64 h compared with that at 40 h was likely due to the exit of the cells from the S and G2/M phase. It is to be noted that the cycling T cells in this system never reaches 100%, because about 15% of the cells were non T cells, and an additional 20% were non responsive T cells. Taken the cell proliferation and cell cycle analysis together, the G1/S boundary of the cycling T cells should be between about 35 h and 48 h after the PHA stimulation. The boundary was broad because the synchronization was not ideal.
In this model, the role of the proteasome in the S phase entry was examined. […] We have noticed that when the cell viability was evaluated at 40 h, there was an increase of cell death comparing the 16 h addition of LAC with the 0 h addition (about 25% vs about 17%, data not shown). The increased cell death was also reflected in the cells with <2N DNA in the 40 h histogram. However, such a viability was still reasonable and would not invalidate our conclusion. […] The discrepancy could be explained by the fact that the 20% cells were already in the S and G2/M phases at 40 h when LAC was added. LAC prevented additional cells from entering into the S phase, therefore the lack ^3H-thymidine uptake.
Flow cytometry was employed for cell cycle analysis for T cells and Jurkat cells as described before (Shan et al., 1994, supra) using propidium iodide staining.

[1] = system: chymotrypsin-like activity in the lysate of PBMC; experiment: LAC-inhibitable chymotrypsin-like activity in PBMC lysates; assay type: biochemical, human; conditions: 10 μM LAC
Method: Human PBMC were cultured in the absence or presence of 2 μg/ml PHA or 10 nM RAPA for 16 h-70 h as indicated. The cells were then harvested, and the chymotrypsin-like activity of whole cells lysates was assayed in the absence or presence of 20 μM proteasome inhibitor LAC. The data are presented as arbitrary units of fluorescence intensity per 20 μg lysate protein. The experiments were repeated three times and a representative one is shown. Samples are in duplicate and the mean±SD is shown. (A) Total chymotrypsin-like activity in the lysate of PBMC. (B) Lactacystin-inhibitable chymotrypsin-like activity in the lysate of 70 h PBMC. […] LAC was always added to the lysates during the proteinase assay 15 min before the addition of the substrate. The solid bars represent the activity in the presence of LAC. The net proteasome activities are calculated as the total activity minus the remaining activity after the LAC addition.
PBMC were cultured with or without PHA (2 μg/ml) and RAPA (10 nM). After 16 h-70 h, the cells were harvested and sonicated in 300 μl PBS on ice for 40 sec. Twenty micrograms of protein per sample from the cleared lysates were supplemented to 100 μl with 0.1 M Tris buffer (pH 8.2). A proteasome-specific inhibitor lactacystin (Omura et al., 1991, supra; Fentenay et al., 1995, supra) was added at a final concentration of 10 nM in some samples as indicated. The samples were incubated on ice for 15 min, and fluorogenic chymotrypsin substrate sLLVY-MCA was then added at a final concentration of 10 nM. The 20S proteasome, which was prepared as previously described (Friguet et al, 1994, J. Biol. Chem. 269:21639), was used as a positive control in place of cell lysates. The samples were incubated at 37° C. for 15 min and the reaction was terminated by adding 4 μl 2.5 M HCl. The samples were then diluted to 2 ml with 0.1 M Tris pH8.2, and measured for their fluorescent intensity by a PTI fluorometer (Photo Technology International, South Brunswick, N.J.). The excitation wavelength was 380 nm, and the emission wavelength 440 mn.

mouse lymph node cells = experiment: Aggregate formation of Con A-stimulated lymph node cells; assay type: cell-based; conditions: 2 μg/ml Con A plus 10 μM lactacystin; 24 h
From the text: Cell-cell interaction is essential in antigen presentation and in T cell's help to T and B cells. The adhesion molecules are necessary to establish the cell-cell interaction. Blocking the adhesion molecules ICAM-1 and LFA-1 is known to inhibit immune responses and to suppress graft rejection. […] Therefore, inhibition of the proteasome activity will be a useful way to control undesirable immune responses during graft rejection, autoimmune diseases, and inflammation.

Tonsillar B cells = experiment: B cell proliferation induced with SAC plus IL-2 (3H-thymidine uptake); assay type: cell-based, human
Method: Lymphocytes were stimulated with various mitogens as indicated, and LAC at different concentrations was added at the beginning of the cultures. The cells were pulsed with 3H-thymidine between 48 h and 64 h. Samples were in triplicates. All the experiments were performed at least three times and similar results were obtained. Representative results are shown.
D: Tonsillar B cells stimulated with SAC (1:15,000 dilution) and IL-2 (100 μ/ml).
The role of proteasome in T cell activation and proliferation was first examined in PBMC, using the proteasome-specific inhibitor LAC. The PBMC were activated with various stimulants. LAC was added to the cells in the beginning of the culture (0 h) along with the stimulants. ^3H-thymidine uptake between 48 h and 64 h of 64 h cultures was used as a parameter for cell proliferation. […] Rather, it likely affects certain downstream events governing a more general process(es) in lymphocyte activation and proliferation.
Peripheral blood mononuclear cells (PBMC) and tonsillar T cells were prepared as described before (Luo et al., 1992, Transplantation 53:1071; Luo et al., 1993, Clin. & Exp. Immunol. 94:371). The cells were cultured in RPMI 1640 supplemented with 10% FCS, L-glutamine and antibiotics. ^3H-thymidine uptake was carried out as described previously (Luo et al., 1992, supra; Luo et al., 1993, supra).

[2] = system: mouse peritoneal exudate macrophages; experiment: LPS-induced nitric oxide production by macrophages (nitrite, Griess reagent); assay type: cell-based; conditions: 2 μg/ml LPS; lactacystin at different concentrations
Method: Nitric oxide production by the macrophages was measured according to the […] concentrations in the supernatants.
BALB/c mice were injected i.p. with 3 ml of 3% thioglycollate broth. Three days later, peritoneal exudate macrophages of the mice were harvested and washed at 170 g for 10 min at 4° C. The macrophages were cultured in Teflon vials (2 cm in diameter) at 4×10^6/2 ml with various reagents (LPS, 2 μg/ml; IFNγ, 100 u/ml; LAC, 0.62-5 μM for the nitric oxide assay and 5 μM for the Northern blot assay).
The nitrite concentration in the culture supernatant was measured as a way to indirectly reflect the nitric oxide level following a method described by Ding et al (Ding et al., 1988, J. Immunology 141:2407). Release of reactive nitrogen intermediates and reactive oxygen intermediates form mouse peritoneal macrophages: comparison of activation cytokines and evidence for independent production. Briefly, 100 μl of supernatants collected from 48 h macrophage cultures was incubated with an equal volume of the Griess reagent (1% sulfanimide/0.1% naphthylethylene diamine dihydrochloride/2.5% H3PO4) at room temperature for 10 min in 96-well microtitration plates, the O.D. was measured at 550 nm. Sodium nitrite of various concentrations were used to construct standard curves.

In the case of `CC(=O)N[C@@H](CSC(=O)[C@]1([C@@H](O)C(C)C)NC(=O)[C@H](C)[C@@H]1O)C(=O)O` [LAC, lactacystin], the S phase entry (Peripheral blood T cells; LAC 10 μM added once at 16 h, examined at 40 h) is reported as “totally block the S phase entry”, the cell death (Peripheral blood T cells; LAC added at 0 h) is reported as “about 17%” and the cell death (Peripheral blood T cells; LAC added at 16 h) is reported as “about 25%”. For the same compound, the “percentage of the population in the S and G2/M phase” value (Peripheral blood T cells; LAC added at 40 h or not, at 64 h) was “no difference”, the “inhibition of total chymotrypsin-like activity in the lysate” value (“inhibition … in the lysate” for short) ([1]; 70 h lysate from PHA plus RAPA-treated PBMC) was 86.7% and the “inhibition … in the lysate” value ([1]; 70 h lysate from PHA-treated PBMC) was 76.7%. For the same compound, the “inhibition … in the lysate” value ([1]; 70 h lysate from medium-treated PBMC) was 73.4%, the aggregate formation (mouse lymph node cells) was “effectively block the aggregate formation” and the “inhibition of B cell proliferation (3H-thymidine uptake)” value (Tonsillar B cells; LAC added at 0 h) was “potently inhibited”. For the same compound, the “extent of inhibition of B cell proliferation” value (Tonsillar B cells; LAC at 5 μM) was “near-to-maximal inhibition” and the “LPS-induced NO production” value [2] was “effectively repress”.
